According to patent US20110236431A1, “TREATMENT OF ACUTE MYOCARDIAL INFARCTION (AMI) USING ENCAPSULATED CELLS ENCODING AND SECRETING GLP-1 PEPTIDES OR ANALOGS THEREOF” (BIOCOMPATIBLES UK LTD., priority 2008, published 2011):
Entries after “also recorded” stand apart in the source; their conditions may differ.

Key:
[1] = molecular target: DPP-IV (Homo sapiens, UniProt P27487); assay: In vitro plasma stability of GLP-1 peptides secreted from human cells; details: cell culture supernatant, human lymphocyte enriched plasma, 37° C., 3 or additionally 6 and 9 hours
Sequence of DPP-IV (P27487 whole entry): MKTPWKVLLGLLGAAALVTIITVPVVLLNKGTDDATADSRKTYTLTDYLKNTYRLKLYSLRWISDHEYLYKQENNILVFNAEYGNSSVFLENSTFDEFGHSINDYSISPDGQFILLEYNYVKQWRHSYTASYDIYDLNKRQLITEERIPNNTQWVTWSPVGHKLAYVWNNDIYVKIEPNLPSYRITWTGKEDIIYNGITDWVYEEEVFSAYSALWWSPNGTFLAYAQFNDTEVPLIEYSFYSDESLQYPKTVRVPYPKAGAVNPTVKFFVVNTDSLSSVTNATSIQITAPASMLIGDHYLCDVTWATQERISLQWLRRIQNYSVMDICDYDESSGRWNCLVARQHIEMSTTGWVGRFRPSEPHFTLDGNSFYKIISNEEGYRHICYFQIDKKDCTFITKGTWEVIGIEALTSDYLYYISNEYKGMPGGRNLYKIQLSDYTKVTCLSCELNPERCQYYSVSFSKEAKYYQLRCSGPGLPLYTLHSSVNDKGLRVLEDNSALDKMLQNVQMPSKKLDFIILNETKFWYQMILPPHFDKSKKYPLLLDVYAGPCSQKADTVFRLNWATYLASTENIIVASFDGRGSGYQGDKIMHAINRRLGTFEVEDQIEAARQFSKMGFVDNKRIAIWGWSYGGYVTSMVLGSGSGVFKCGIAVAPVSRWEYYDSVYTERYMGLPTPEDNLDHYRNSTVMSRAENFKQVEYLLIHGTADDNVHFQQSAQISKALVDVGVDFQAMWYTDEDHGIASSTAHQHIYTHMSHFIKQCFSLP

[2] = system: Rin-5F cells; assay: Anti-apoptotic efficacy, cycloheximid-induced apoptosis; type: cell-based, rat; details: 24 hours
Protocol: 40.000 Rin-5F cells were seeded per 96 well and cultivated for 2 days in RPMI supplemented with 1% L-Glutamin and 10% fetal calf serum. […] After 24 hours cell viability is quantified using AlamarBlue.

[3] = system: patients with AMI and severe systolic dysfunction; details: GLP-1 infusion added to standard therapy; cited from earlier work

GLP1(7-37)-IP2-GLP1(7-37) [construct #217]
stability to DPP-IV degradation in plasma (active GLP-1 ELISA) [1]: more resistant to degradation; also recorded: nearly fully stabilized to DPP-IV degradation

GLP-1(7-37)-IP2-GLP-1(7-37) [CM1]
cell viability ([2]; CHX 10 μg/ml and 100 μg/ml, different concentrations of CM1): significant (p<0.01) increase of cell viability
anti-apoptotic effect (cell viability, AlamarBlue) ([2]; cycloheximid, serum-free, 1 nM CM1, p<0.01): significant anti-apoptotic effect

GLP-1(7-37)-IP2-extended with 11 AA [construct #317]
stability to DPP-IV degradation in plasma (active GLP-1 ELISA) [1]: more resistant to degradation

Glucagon Like Peptide-1 (HAEGTFTSDVSSYLEGQAAKEFIAWLVKGRG) [GLP-1, naturally occurring incretin, infused in literature studies]
regional and global LV function [3]: improved regional and global LV function
